# From ChEMBL document CHEMBL1138755, “A peptide nucleic acid-neamine conjugate that targets and cleaves HIV-1 TAR RNA inhibits viral replication” (J Med Chem, 2004)
# Test system: Human immunodeficiency virus 1
# Assay: Ability of the conjugate to block HIV-1 production when supplemented in a culture medium; NI= No inhibition of the HIV-1 replication even at concentration >5 uM
# Type: functional, organism-based
compound,measurement,value
NC[C@H]1O[C@H](O[C@H]2[C@H](O)[C@@H](O)[C@H](N)C[C@@H]2N)[C@H](N)[C@@H](O)[C@@H]1O,inhibition,No inhibition
